Test results reported in patent US9040713B2, “Methods of managing blood sugar levels and compositions related thereto” (EMORY UNIVERSITY, priority 2010, dated 2015).
Several values for one entry are separate records, joined by “and”; a condition that tells them apart may be missing. Equal values may be shown once.

Assays:
IR = IR (Homo sapiens, UniProt P06213); test: Immunoblotting of IR phosphorylation and downstream signaling in CHO-IR cells; type: cell-based; parameters: expressed in transfected cells; host or cells: CHO (CHO-IR, gift from Dr. Nicholas Webster, UCSD)
Chain of IR (P06213 763-1382 limits assumed): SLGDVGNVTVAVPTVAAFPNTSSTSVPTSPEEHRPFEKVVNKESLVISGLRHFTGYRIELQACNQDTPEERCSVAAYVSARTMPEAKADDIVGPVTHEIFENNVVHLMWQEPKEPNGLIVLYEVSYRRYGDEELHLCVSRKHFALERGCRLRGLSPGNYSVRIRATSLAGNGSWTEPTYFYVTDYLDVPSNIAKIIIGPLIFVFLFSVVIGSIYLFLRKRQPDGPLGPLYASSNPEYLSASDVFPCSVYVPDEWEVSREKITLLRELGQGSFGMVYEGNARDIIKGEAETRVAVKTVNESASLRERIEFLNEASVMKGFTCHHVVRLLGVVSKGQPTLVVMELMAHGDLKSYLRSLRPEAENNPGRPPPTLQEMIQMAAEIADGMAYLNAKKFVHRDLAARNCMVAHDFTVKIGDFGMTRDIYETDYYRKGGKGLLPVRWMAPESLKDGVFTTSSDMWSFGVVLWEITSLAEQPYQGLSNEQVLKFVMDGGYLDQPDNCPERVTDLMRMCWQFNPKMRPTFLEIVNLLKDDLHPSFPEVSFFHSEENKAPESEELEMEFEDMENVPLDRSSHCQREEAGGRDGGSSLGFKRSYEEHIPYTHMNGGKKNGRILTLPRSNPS
Chain of IR (P06213 28-758 limits assumed): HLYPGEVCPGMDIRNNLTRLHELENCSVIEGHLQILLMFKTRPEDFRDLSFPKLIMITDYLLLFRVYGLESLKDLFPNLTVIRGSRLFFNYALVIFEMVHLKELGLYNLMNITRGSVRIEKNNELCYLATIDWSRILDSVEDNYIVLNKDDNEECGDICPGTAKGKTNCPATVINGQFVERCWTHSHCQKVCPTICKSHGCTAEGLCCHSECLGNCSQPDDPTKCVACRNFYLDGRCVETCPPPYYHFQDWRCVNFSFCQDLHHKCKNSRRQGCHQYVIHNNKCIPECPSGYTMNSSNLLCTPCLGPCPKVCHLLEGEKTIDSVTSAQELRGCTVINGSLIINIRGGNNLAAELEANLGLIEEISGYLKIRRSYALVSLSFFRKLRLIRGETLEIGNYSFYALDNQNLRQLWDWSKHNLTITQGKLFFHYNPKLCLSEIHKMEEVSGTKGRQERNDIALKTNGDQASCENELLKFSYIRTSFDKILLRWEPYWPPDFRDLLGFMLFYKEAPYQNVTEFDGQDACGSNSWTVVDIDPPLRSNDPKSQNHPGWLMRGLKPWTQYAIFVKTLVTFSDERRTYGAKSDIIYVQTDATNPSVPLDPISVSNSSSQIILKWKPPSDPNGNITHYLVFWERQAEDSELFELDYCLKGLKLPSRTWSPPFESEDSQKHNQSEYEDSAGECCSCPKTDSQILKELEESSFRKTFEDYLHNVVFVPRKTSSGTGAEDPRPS
Protocol: The cell lysates were analyzed by immunoblotting with anti-phospho-IR antibodies, or immunoprecipitated by PY20 and analyzed using anti-IR and anti-IRS-1, respectively. […] The cell lysates were analyzed by immunoblotting with anti-pIGF-1R and anti-pEGFR. […]
A cell-based ELISA assay was developed with an IR stably transfected Chinese Hamster Ovary (CHO-IR) cell line. […] The cell lysates were subjected to the sandwich ELISA using immobilized anti-phosphotyrosine antibody and anti-IR antibody.

mice = test: Repeated dosing tolerability in mice; type: in vivo, mouse
Protocol: […] Mice were chronically treated with 4524-E7 for 2 weeks and tested if the compound can inhibit food intake.
In liver and muscle, DDN elicited demonstrable IR activation after 3-4 h (FIG. 3B, 1st panel). […] The liver was then dissected and homogenized after 5 min. […] Similarly to the observation in C57/BL6 mice, DDN induces IR signaling in the well-established mice models of non-insulin-dependent diabetes mellitus.

EGFR = EGFR phosphorylation in cells (immunoblotting); type: cell-based
Protocol: (A) DDN and CSN activate IR and its downstream signaling in CHO-IR cells. […] The cell lysates were analyzed by immunoblotting with anti-phospho-IR antibodies, or immunoprecipitated by PY20 and analyzed using anti-IR and anti-IRS-1, respectively. (B) DDN and CSN induce IR phosphorylation in a dose-dependent manner. CHO-IR cells were treated with the small compounds at different concentrations for 15 min, and the IR phosphorylation was monitored by immunoprecipitation and immunoblotting. (C) DDN, CSN induce IR phosphorylation in a time-dependent manner. […] (D) DDN and CSN induce IR phosphorylation and its downstream signaling in a dose-dependent manner. […] (E) DDN and CSN cannot induce IGF-1R or EGFR phosphorylation. CHO-IGF-1R or HEK293 cells were treated with EGF (100 nM), IGF-1 (100 nM), DDN (10 μM) or CSN (10 μM) for 15 min. The cell lysates were analyzed by immunoblotting with anti-pIGF-1R and anti-pEGFR.
(A) Chemical structure of 4524-E7. (B) Effect of 4524-E7 and other 1,4-naphthoquinone derivatives on IR phosphorylation in CHO-IR cells. CHO-IR cells were cultured in 96-well plates and treated with 5 μM compounds for 15 min at 37 C. Cells were lysed, and IR phosphorylations were tested by ELISA. The IR phosphorylation activities of the tested compounds were expressed as a percentage of the vehicle. (C) 4524-E7 and 1,4-naphthoquinone derivates activate IR and its downstream signaling in CHO-IR cells. […] The cell lysates were analyzed by immunoblotting with various indicated antibodies. The phosphorylated IR was immunoprecipitated using PY20 and analyzed by immunoblotting with anti-IR13 antibody. […] The phosphorylation of each receptor was determined by Western blot using specific antibodies as indicated. (E) 4524-E7 activates IR through its ICD. Upper panel: Diagram of chimaeric receptors. Lower panel: His-tagged wild-type IR, IGFR-IR, IR-IGFR, and IR-EGFR constructs were transfected into CHO cells followed vehicle or 5 μM 4524-E7 treatment for 30 min. Then the cells were lysated and the transfected receptor fused to His tag were pulled down with Ni+ beads, followed by western blot against anti-p-Tyr and anti-His. The cell lysates were tested with anti-p-Akt and anti-Akt.
A cell-based ELISA assay was developed with an IR stably transfected Chinese Hamster Ovary (CHO-IR) cell line. The cells were seeded in a 96-well plate and treated with 10 μM (15 min) compounds. The cell lysates were subjected to the sandwich ELISA using immobilized anti-phosphotyrosine antibody and anti-IR antibody. […] Among the positive hits, 1,4-naphthoquinone compounds were identified that can selectively activate IR but not IGF-1R (FIG. 1A). […] Total IR tyrosine phosphorylation was further confirmed by immunoprecipitation using anti-phosphotyrosine (PY20) antibody (FIG. 2A, 3rd panel). […]

[1] = C57BL/6J mice, 5 mg/kg daily oral, 16 days

| Structure (SMILES) | concentration activating IR cascade strongly and specifically (IR) [µM] | tyrosine phosphorylation on the IR (IR; 5 μM, 15 min) | IR tyrosine phosphorylation (IR; 5 μM, 30 min) | concentration at which Erk1/2 activation was detected (IR; 15 min) [µM] | concentration elevating Akt phosphorylation (IR; 15 min) [µM] | blood chemistry analysis (mice; 5 mg/kg, 2 weeks) | food intake and body weight compared to vehicle control (mice; 5 mg/kg, 2 weeks) | pathological examination on all major organs (mice; two week period) | EGFR activation (EGFR; EGFR-transfected HEK293 cells, 5 μM) | EGFR activation (EGFR; differentiated 3T3-L1 adipocytes) | time at which IR phosphorylation starts (IR; 5 μM) | tyrosine phosphorylation of IRS-1 (IR; 5 μM, 15 min) | tyrosine phosphorylation of the IR β subunit in Y1146 and Y1158/1162/1163 (IR; 5 μM, 15 min) | concentration stimulating the IR signal cascades (IR; DDN or CSN 30 min, insulin 15 min) [µM] | food intake and blood biochemistry (mice; [1]) | pathological examination of brain, heart, liver, kidney and muscle (mice; [1]) | side effects (mice; administrated to animals for two weeks) | EGFR activation (EGFR; HEK293 cells, 10 μM, 15 min) |
| --- | --- | --- | --- | --- | --- | --- | --- | --- | --- | --- | --- | --- | --- | --- | --- | --- | --- | --- |
| O=C1c2ccccc2C(=O)C2SC(Nc3ccc(Cl)cc3)=NC12 (stereo not drawn) [4524-E7, 2-((4-chlorophenyl)amino)naphtho[2,3-d]thiazole-4,9(3aH,9aH)-dione] | 1 to 2.5 | increased the tyrosine phosphorylation on the IR | triggered IR tyrosine phosphorylation | ≥ 5 | 0.5 | comparable results between drug-treated mice and vehicle control | not significantly changed | no demonstrable toxicity was detected | not any other RTKs | neither IGF-1R nor EGFR was activated | – | – | – | – | – | – | – | – |
| CC(=O)Oc1ccc(OC(C)=O)c2c1C(=O)C(Cl)=C(Cl)C2=O [DDN, 5,8-diacetyloxy-2,3-dichloro-1,4-naphthoquinone] | – | – | – | – | – | – | – | – | – | – | 5 to 15 min and 5 min | also increased | strongly stimulated | 5 | did not affect the food intake, or blood biochemistry | failed to detect any demonstrable toxicity | does not exhibit any intolerable side effects | Neither IGF-1R nor EGFR was activated |
